Assay results published in patent US9469650B2, “Melampomagnolide B derivatives” (BOARD OF TRUSTEES OF THE UNIVERSITY OF ARKANSAS, priority 2013, dated 2016).
Read-outs that look alike come from different tables or passages of the source.

What was measured:
[1] = system: COLO 205
[2] = system: OVCAR-3
[3] = system: RPMI-8226
[4] = system: HCT-116
[5] = system: NCI-H23
[6] = system: ACHN
[7] = system: UACC-257
[8] = system: NCI-H226
[9] = system: MCF7
[10] = system: KM12
[11] = system: A549/ATCC
[12] = system: RPMI-8226; assay: panel of 60 human tumor cell lines, growth inhibition (Leukemia); details: for CC50: RPMI-8226, read-out: LC50
[13] = system: SF-539
[14] = system: MDA-MB-468
[15] = system: AML 052308 cells; assay: cells; details: read-out: LC50
Text: Derivatives were screened for antileukemic activity against AML cells in culture (See FIGS. 1-7).

[16] = RPMI-8226, Log10 Concentration −4.0
[17] = RPMI-8226, Log10 Concentration −5.0
[18] = RPMI-8226, Log10 Concentration −6.0
[19] = RPMI-8226, Log10 Concentration −7.0
[20] = RPMI-8226, Log10 Concentration −8.0

| SMILES | CC50 [1] [µM] | CC50 [2] [µM] | CC50 [3] [µM] | CC50 [5] [µM] | CC50 [6] [µM] | CC50 [7] [µM] | CC50 [8] [µM] | CC50 [9] [µM] | CC50 [10] [µM] | CC50 [11] [µM] | Percent Growth [12, 16] [%] | Percent Growth [12, 17] [%] | Percent Growth [12, 18] [%] | Percent Growth [12, 19] [%] | Percent Growth [12, 20] [%] | TGI ([12]; RPMI-8226, NCI five dose) | CC50 [13] [µM] | CC50 [14] [µM] | GI50 ([12]; Homo sapiens, RPMI-8226) [µM] | CC50 ([12]; Homo sapiens) [µM] | other results |
| --- | --- | --- | --- | --- | --- | --- | --- | --- | --- | --- | --- | --- | --- | --- | --- | --- | --- | --- | --- | --- | --- |
| C=C1C(=O)O[C@H]2[C@H]1CC/C(COC(=O)CCC(=O)N1CCC(C)CC1)=C\CC[C@@]1(C)O[C@@H]21 [JVM 2-70] | 31.9 | 32.5 | > 100 | 64.3 | 43.5 | 47 | 76.1 | 64.1 | 56.6 | 75.9 | −34 | 28 | 96 | 98 | 101 | 2.82E−5 | – | – | – | – | CC50 [4]: 11.9 µM; GI50 ([12]; RPMI-8226, NCI five dose): 4.74 µM |
| C=C1C(=O)O[C@H]2[C@H]1CC/C(COC(=O)NC)=C\CC[C@@]1(C)O[C@@H]21 [JVM 2-57] | – | 34.3 | 90.3 | 66.1 | 43.3 | 44.1 | 96.1 | 47.7 | 55.9 | 57.7 | −53 | 7 | 87 | 94 | 101 | 1.30E−5 | 42.9 | 49 | – | – | CC50 [4]: 33.6 µM; GI50 ([12]; RPMI-8226, NCI five dose): 2.89 µM |
| C=C1C(=O)O[C@H]2[C@H]1CC/C(COC(=O)NCCO)=C\CC[C@@]1(C)O[C@@H]21 [JVM 2-50] | 50.7 | 47.3 | > 100 | 94.3 | 71.1 | 63.5 | > 100 | 75.5 | – | > 100 | −49 | 33 | 93 | 97 | 98 | 2.51E−5 | 56.2 | 49.1 | – | – | GI50 ([12]; RPMI-8226, NCI five dose): 5.14 µM |
| C=C1C(=O)O[C@H]2[C@H]1CC/C(COC(=O)NCCN1CCOCC1)=C\CC[C@@]1(C)O[C@@H]21 [JVM 57, ((1aR,7aS,10aS,10bS,E)-1a-methyl-8-methylene-9-oxo-1a,2,3,6,7,7a,8,9,10a,10b-decahydrooxireno[2′,3′:9,10]-cyclodeca[1,2-b]furan-5-yl)-methyl(2-morpholinoethyl)carbamate] | – | – | – | – | – | – | – | – | – | – | −47 | 34 | 99 | 97 | 100 | – | – | – | 5.72 | > 100 | TGI ([12]; RPMI-8226): 2.63E−5 |
| C=C1C(=O)O[C@H]2[C@H]1CC/C(COC(=O)NCCc1ccccn1)=C\CC[C@@]1(C)O[C@@H]21 [JVM 61, ((1aR,7aS,10aS,10bS,E)-1a-methyl-8-methylene-9-oxo-1a,2,3,6,7,7a,8,9,10a,10b-decahydrooxireno[2′,3′:9,10]cyclodeca[1,2-b]furan-5-yl)methyl-(2-(pyridin-2-yl)ethyl)carbamate] | – | – | – | – | – | – | – | – | – | – | −32 | 45 | 100 | 100 | 102 | – | – | – | 8.2 | > 100 | TGI ([12]; RPMI-8226): 3.88E−5 |
| C=C1C(=O)O[C@H]2[C@H]1CC/C(COC(=O)N1CCC(F)(F)CC1)=C\CC[C@@]1(C)O[C@@H]21 [JVM 2-66] | 8.44 | 9.62 | > 100 | 48.2 | – | 36.5 | 10.9 | 26.4 | 54.5 | 66.2 | −46 | −25 | 81 | 97 | 98 | – | 12.3 | 11.5 | – | – | CC50 [4]: 7.75 µM; GI50 ([12]; RPMI-8226): 1.98 µM; TGI ([12]; RPMI-8226): 5.83E−6 |
| C=C1C(=O)O[C@H]2[C@H]1CC/C(COC(=S)n1ccnc1)=C\CC[C@@]1(C)O[C@@H]21 [JVM 66] | – | – | – | – | – | – | – | – | – | – | −31 | 53 | 102 | 103 | 103 | 4.29E−5 | – | – | 11 | > 100 | CC50 [15]: 2.6 µM |
| C=C1C(=O)O[C@H]2[C@H]1CC/C(COC(=O)N1CCN(C)CC1)=C\CC[C@@]1(C)O[C@@H]21 [JVM 2-44] | 64.8 | 42.3 | – | 82.4 | 52.6 | 54.1 | > 100 | 60.1 | 68.9 | > 100 | – | – | – | – | – | – | 55.1 | 48.7 | – | – | CC50 [4]: 48 µM |
| C=C1C(=O)O[C@H]2[C@H]1CC/C(COC(=O)CCC(=O)NCc1ccc(Cl)nc1)=C\CC[C@@]1(C)O[C@@H]21 [JVM 96] | – | – | – | – | – | – | – | – | – | – | −48 | 23 | 94 | 107 | 106 | – | – | – | 4.16 | > 100 | TGI ([12]; RPMI-8226): 2.09E−5 |
| C=C1C(=O)O[C@H]2[C@H]1CC/C(COC(=O)Nc1n[nH]c(SC)n1)=C\CC[C@@]1(C)O[C@@H]21 [JVM 64, ((1aR,7aS,10aS,10bS,E)-1a-methyl-8-methylene-9-oxo-1a,2,3,6,7,7a,8,9,10a,10b-decahydrooxireno[2′,3′:9,10]cyclodeca[1,2-b]furan-5-yl)methyl-(5-(methylthio)-1H-1,2,4-triazol-3-yl)carbamate] | – | – | – | – | – | – | – | – | – | – | −46 | −11 | 93 | 100 | 101 | 7.79E−6 | – | – | 2.57 | > 100 | CC50 [15]: 7.4 µM |
| C=C1C(=O)O[C@H]2[C@H]1CC/C(COC(=O)NCCN1CCCC1)=C\CC[C@@]1(C)O[C@@H]21 [JVM 59, ((1aR,7aS,10aS,10bS,E)-1a-methyl-8-methylene-9-oxo-1a,2,3,6,7,7a,8,9,10a,10b-decahydrooxireno[2′,3′:9,10]cyclodeca[1,2-b]furan-5-yl)methyl-(2-(pyrrolidin-1-yl)ethyl)carbamate] | – | – | – | – | – | – | – | – | – | – | −51 | 47 | 97 | 98 | 184 | – | – | – | 8.71 | 97.1 | TGI ([12]; RPMI-8226, five dose): 3.01E−5 |
| C=C1C(=O)O[C@H]2[C@H]1CC/C(COC(=O)NCCN1CCCCC1)=C\CC[C@@]1(C)O[C@@H]21 [JVM 2-13] | 7.75 | – | – | 65.5 | 45.6 | 49.9 | > 100 | 62.5 | 61.6 | 98.5 | – | – | – | – | – | – | 48.4 | 28.5 | – | – | – |
| C=C1C(=O)O[C@H]2[C@H]1CC/C(COC(=O)OCCCN1CCCCC1)=C\CC[C@@]1(C)O[C@@H]21 [JVM 2-26] | – | – | – | – | – | – | – | – | – | – | – | – | – | – | – | – | – | – | – | – | CC50 [15]: 5 µM |
